Measurements published in ChEMBL document CHEMBL1201862, “PubChem BioAssay data set” (2004).
Values joined by “and” are separate entries in the source; they are usually repeats but may differ in a detail not shown here. Equal values may be shown once. Active and inactive are the calls of the source.

What was measured:
[1] = target: T1, Heat shock factor protein 1 (Mus musculus, UniProt P38532); assay: decrease of HSF1-responsive luciferase luminescence – cell-based, NIH3T3, dose retest, confirmation (AID 2382); type: functional;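 also: NIH3T3 fibroblasts with HSF1-driven luciferase reporter stressed by proteasome inhibitor MG132; luminescence from HSF1-driven luciferase expression after 8 hours of MG132 stress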
T1 sequence (P38532 whole entry): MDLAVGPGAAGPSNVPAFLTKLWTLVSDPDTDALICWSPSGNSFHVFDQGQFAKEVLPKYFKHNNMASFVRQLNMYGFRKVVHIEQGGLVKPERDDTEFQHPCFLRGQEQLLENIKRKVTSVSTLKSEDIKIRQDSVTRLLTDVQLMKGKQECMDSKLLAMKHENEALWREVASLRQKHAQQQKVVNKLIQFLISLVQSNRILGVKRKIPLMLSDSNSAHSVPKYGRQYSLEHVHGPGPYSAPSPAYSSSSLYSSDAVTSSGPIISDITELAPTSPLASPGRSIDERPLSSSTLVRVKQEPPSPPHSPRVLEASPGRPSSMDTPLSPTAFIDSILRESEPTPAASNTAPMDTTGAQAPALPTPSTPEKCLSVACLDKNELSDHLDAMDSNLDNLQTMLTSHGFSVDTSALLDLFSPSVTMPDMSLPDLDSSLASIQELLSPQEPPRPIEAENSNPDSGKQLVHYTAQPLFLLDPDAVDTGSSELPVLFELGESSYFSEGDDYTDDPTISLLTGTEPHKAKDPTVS

[2] = Trypanosoma cruzi growth suppression in host cells – NIH3T3 host cells, beta-gal luminescence, confirmation (AID 2044); type: functional, cell-based;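 also: intracellular parasites grown in NIH/3T3 mouse fibroblasts as host cells; luminescent beta-galactosidase reporter signal from transgenic T. cruzi replicating inside host cells; inhibitors lower the luminescence signal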
[3] = NIH3T3 cell viability loss – ATP luminescence, mouse fibroblasts, counter-screen, dose response (AID 2010); type: functional, cell-based;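 also: cells exposed to compound for about 90 hours before reading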
Cytochrome P450 2C9 = Cytochrome P450 2C9 (Homo sapiens, UniProt P11712)
[4] = Luminescence Cell-Based Dose Retest to Confirm Inhibitors of Cancer Stem Cells. [Related pubchem assays (depositor defined):AID2717, AID2721]; type: functional; details: Homo sapiens
Cytochrome P450 3A4 = Cytochrome P450 3A4 (Homo sapiens, UniProt P08684);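 also: CYP3A4 tested as one member of a cytochrome P450 panel screen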
[5] = target: T2, Corticotropin-releasing factor receptor 2/Corticotropin-releasing factor-binding protein (Homo sapiens, UniProt P24387+Q13324); assay: activators of CRF receptor 2 with binding protein – uHTS hits, confirmation (AID 602473); type: functional; details: read-out: EC50_Mean
T2 sequence (Q13324 whole entry): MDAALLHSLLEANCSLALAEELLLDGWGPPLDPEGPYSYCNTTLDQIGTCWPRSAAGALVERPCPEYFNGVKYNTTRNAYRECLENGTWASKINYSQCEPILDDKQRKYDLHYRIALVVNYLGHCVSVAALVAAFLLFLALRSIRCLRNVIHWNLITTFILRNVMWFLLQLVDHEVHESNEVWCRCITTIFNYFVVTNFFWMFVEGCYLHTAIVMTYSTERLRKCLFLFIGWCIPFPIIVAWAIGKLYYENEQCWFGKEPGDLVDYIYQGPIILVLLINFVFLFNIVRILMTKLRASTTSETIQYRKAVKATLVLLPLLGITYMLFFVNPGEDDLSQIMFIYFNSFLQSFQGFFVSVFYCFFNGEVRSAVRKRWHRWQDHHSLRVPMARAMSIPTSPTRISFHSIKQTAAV
T2 sequence (P24387 whole entry): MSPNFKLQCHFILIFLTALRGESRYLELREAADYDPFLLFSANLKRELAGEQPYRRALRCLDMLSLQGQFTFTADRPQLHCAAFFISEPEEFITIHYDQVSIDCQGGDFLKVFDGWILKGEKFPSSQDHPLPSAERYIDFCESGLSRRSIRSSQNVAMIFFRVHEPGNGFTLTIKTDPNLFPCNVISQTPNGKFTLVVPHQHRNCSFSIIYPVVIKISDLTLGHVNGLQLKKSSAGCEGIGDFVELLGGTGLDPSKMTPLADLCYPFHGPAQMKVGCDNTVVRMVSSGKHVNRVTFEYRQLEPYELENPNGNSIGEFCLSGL

Cytochrome P450 2C19 = Cytochrome P450 2C19 (Homo sapiens, UniProt P33261); assay: Cytochrome panel assay with activity outcomes. Panel member name: p450-cyp2c19 Compounds with AC50 equal or less than 10 uM are considered active; type: functional
[6] = Luminescence Cell-Based Dose Response HTS to Identify Activators of Luciferase Translation or Activity in H4 […] Cells. [Related pubchem assays: 1829 (Project Summary), 1814 (Primary HTS)]; type: functional

Chain of Cytochrome P450 2C9 (P11712 whole entry): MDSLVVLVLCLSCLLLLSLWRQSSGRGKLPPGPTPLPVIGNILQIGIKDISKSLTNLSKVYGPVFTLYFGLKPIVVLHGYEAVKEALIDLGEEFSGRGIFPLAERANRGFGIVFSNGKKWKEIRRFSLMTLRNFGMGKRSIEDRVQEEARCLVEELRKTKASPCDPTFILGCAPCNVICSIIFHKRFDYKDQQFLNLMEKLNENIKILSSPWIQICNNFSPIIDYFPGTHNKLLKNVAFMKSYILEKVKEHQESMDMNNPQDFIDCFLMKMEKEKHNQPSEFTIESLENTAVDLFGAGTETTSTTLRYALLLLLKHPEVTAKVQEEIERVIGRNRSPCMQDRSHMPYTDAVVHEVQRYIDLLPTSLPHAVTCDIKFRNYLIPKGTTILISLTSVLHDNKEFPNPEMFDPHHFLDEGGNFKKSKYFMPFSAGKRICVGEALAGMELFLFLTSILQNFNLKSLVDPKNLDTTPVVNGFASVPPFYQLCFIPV
Chain of Cytochrome P450 3A4 (P08684 whole entry): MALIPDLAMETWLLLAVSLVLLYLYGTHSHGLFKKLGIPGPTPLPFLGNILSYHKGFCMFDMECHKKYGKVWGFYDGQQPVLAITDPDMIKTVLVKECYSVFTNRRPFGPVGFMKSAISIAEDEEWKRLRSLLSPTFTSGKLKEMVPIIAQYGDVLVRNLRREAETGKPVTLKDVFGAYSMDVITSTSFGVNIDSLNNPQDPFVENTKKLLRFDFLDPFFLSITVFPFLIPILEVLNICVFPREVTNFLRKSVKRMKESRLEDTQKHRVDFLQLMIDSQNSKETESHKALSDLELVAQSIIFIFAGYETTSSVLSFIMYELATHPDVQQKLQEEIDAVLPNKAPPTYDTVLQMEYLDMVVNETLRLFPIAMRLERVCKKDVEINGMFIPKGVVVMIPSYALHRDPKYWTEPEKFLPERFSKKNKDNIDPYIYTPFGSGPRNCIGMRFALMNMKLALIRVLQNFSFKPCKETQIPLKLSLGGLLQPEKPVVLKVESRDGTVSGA
Chain of Cytochrome P450 2C19 (P33261 whole entry): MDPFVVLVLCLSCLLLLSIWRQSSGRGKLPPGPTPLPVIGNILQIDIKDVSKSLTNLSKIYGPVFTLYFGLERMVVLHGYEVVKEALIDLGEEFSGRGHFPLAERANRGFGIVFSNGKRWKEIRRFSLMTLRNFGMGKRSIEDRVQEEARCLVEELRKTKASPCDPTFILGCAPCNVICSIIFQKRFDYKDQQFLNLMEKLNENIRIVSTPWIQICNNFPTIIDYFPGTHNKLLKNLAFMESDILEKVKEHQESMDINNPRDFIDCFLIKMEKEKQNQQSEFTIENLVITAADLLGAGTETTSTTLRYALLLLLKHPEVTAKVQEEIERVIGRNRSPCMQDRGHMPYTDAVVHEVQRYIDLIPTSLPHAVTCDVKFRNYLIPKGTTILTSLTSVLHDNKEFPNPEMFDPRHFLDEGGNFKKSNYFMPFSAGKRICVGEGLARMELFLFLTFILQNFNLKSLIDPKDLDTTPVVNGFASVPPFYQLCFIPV

CCN(CC(=O)Nc1ccc(NC(C)=O)cc1)C(=O)C12CC3CC(CC(Cl)(C3)C1)C2
EC50 [1]: > 195 µM (not active)

CCOc1cc(C#N)c(NC(=O)c2cccnc2Cl)cc1OCC
EC50 [1]: > 195 µM (not active)

CC(C)c1ccc(CNCCCSc2ncccn2)cc1
EC50 [2]: 0.163 µM (active)
EC50 [3]: > 30 µM (not active)

CCC(C)NC(=O)CN1C(=O)CN=C(c2ccccc2)c2ccccc21 (stereo not given)
EC50 [1]: > 195 µM (not active)

COc1cccc(-c2nccc(NCc3cccc(C)c3)n2)c1
AC50 (Cytochrome P450 2C9): 1.58 µM (inconclusive)

Nc1ncnc2c1ncn2[C@@H]1O[C@H](CO)C[C@@H]1O
EC50 [2]: 0.531 µM (active)
EC50 [3]: > 60 µM (not active)

S=C(Nc1ccc(Oc2ccccc2)cc1)NC1CCCCCC1
AC50 [4]: 5.01 µM (active)

CC(=O)Nc1ccc2nc(NC(=O)c3ccc([N+](=O)[O-])s3)sc2c1
EC50 [2]: 0.993 µM (active)
EC50 [3]: > 60 µM (not active)

CCOc1ccc(CN2CCN(Cc3nc4c(s3)CCCC4)CC2CCO)cc1 (stereo not given)
EC50 [2]: 0.772 µM (active)
EC50 [3]: > 60 µM (not active)

O=C(O)CCC(=O)N1CCc2cc(S(=O)(=O)N3CCCCC3)ccc21
AC50 (Cytochrome P450 2C9): 15.8 µM (inconclusive)

CCN1CCN(c2ccc(S(=O)(=O)N3CCCCC3)cc2NC(=O)Cc2ccccc2F)CC1
EC50 [2]: 0.235 µM (active)
EC50 [3]: > 30 µM (not active)

CC(C)(C)S(=O)(=O)c1cnc2c(-c3ccc(F)cc3)cnn2c1N
AC50 (Cytochrome P450 3A4): 7.94 µM (inconclusive)

CN(Cc1nc(-c2ccccc2)no1)C(=O)c1ccc2c(c1)OCO2
EC50 [1]: > 195 µM (not active)

O=C(Nc1cccc(F)c1)N1CC[C@@]2(CCCNC2)C1
AC50 (Cytochrome P450 3A4): 7.94 µM (inconclusive)

CCOc1ccc(C(=O)Nc2ccccc2N2CCCC2)cc1
AC50 (Cytochrome P450 2C9): 14.1 µM (inconclusive)

COc1ncc2nc(C)c(=O)n(C3CC3)c2n1
AC50 (Cytochrome P450 3A4): 25.1 µM (inconclusive)

Cc1noc(C)c1COc1cccc(C(=O)Nc2ccc(OCc3ccccc3)cc2)c1
AC50 [4]: 10.8 µM (active)

Cc1ccc(SC[C@H](C)CN2CC[C@H](C(C)(C)C)CCC2=O)cc1
AC50 [4]: 1.56 µM (active)

COc1cc(CNCc2c[nH]c3ccccc23)cc(OC)c1
EC50 [2]: 2.93 µM (active)
EC50 [3]: > 60 µM (not active)

CCOC(=O)c1c(-c2ccccc2)n(C)c2ccc(O)cc12
EC50 [1]: > 195 µM (not active)

O=C(COC(=O)C1C2CC3OC(=O)C1C3C2)Nc1cccc(Cl)c1 (stereo not given)
EC50 [1]: > 195 µM (not active)

O=C(Oc1ccc2c(c1)CN(Cc1ccccc1)CO2)c1ccccc1
AC50 (Cytochrome P450 3A4): 3.98 µM (inconclusive)

CNC(=O)c1ccsc1NC(=O)c1ccc(S(=O)(=O)N2CCCc3ccccc32)cc1
EC50 [2]: 2.02 µM (active)
EC50 [3]: > 60 µM (inconclusive)

COCCCNC(=O)C1CC(=O)N(CCc2ccc(OC)c(OC)c2)C1 (stereo not given)
AC50 (Cytochrome P450 3A4): 15.8 µM (inconclusive)

Cc1onc(-c2ccc(Cl)cc2)c1-c1ccnc(SCC(=O)Nc2cc(Cl)cc(Cl)c2)n1
EC50 [2]: 1.72 µM (active)
EC50 [3]: > 60 µM (not active)

CCCOc1c(OC)cccc1C1CC(=O)Nc2cc3c(cc21)OCCO3 (stereo not given)
AC50 [4]: 1.85 µM (active)

NS(=O)(=O)c1ccc(NC(=O)COC(=O)C2(c3ccccc3F)CCCC2)cc1
EC50 [1]: 26 µM (active)

Cc1c(C(=O)Nc2ccc(Cl)cc2)c2ccccn2c1C(=O)c1ccc([N+](=O)[O-])cc1
EC50 [2]: 0.737 µM (active)
EC50 [3]: > 60 µM (not active)

Cn1c(CN2CCCC(C(=O)c3ccc4c(c3)OCO4)C2)nc2ccccc21 (stereo not given)
EC50 [2]: 1.35 µM (active)
EC50 [3]: > 60 µM (inconclusive)

CCN(CC)C(=O)N[C@@H]1C[C@H]2c3cccc4[nH]cc(c34)C[C@@H]2N(C)C1
AC50 (Cytochrome P450 3A4): 6.31 µM (inconclusive) and 3.98 µM (inconclusive)

COc1ccccc1Oc1ccc2c(c1)C(=O)N(c1ccc(Br)c3cccnc13)C2=O
EC50 [1]: > 195 µM (not active)

Clc1ccc(Cl)c(Nc2ccnc(SCc3ccccc3)n2)c1
AC50 (Cytochrome P450 3A4): 3.98 µM (inconclusive)
AC50 (Cytochrome P450 2C9): 6.31 µM (inconclusive)

O=C(CSc1ncc(-c2ccccc2)n1C1CCCC1)N1CCc2ccccc21
EC50 [2]: 1.81 µM (active)
EC50 [3]: > 60 µM (not active)
EC50 [5]: > 53 µM (inactive)

COc1ccccc1NC(=O)Cn1c(=O)c(N(C)C)c(N)n(C)c1=O
EC50 [1]: > 195 µM (not active)

O=C(NNC(=S)Nc1ccccc1)c1ccco1
AC50 (Cytochrome P450 2C9): 35.5 µM (inconclusive)

COc1ccc(S(=O)(=O)/C(C#N)=C/Nc2cccc(OC)c2)cc1
EC50 [1]: > 195 µM (not active)

Cc1cc2nc(-c3ccc(SCc4ccc(C#N)cc4)nc3)[nH]c2cc1C
EC50 [2]: 2.06 µM (active)
EC50 [3]: > 60 µM (inconclusive)

N#CC(=C1CCCC1)c1nc(-c2ccccc2)cs1
AC50 (Cytochrome P450 2C9): 25.1 µM (inconclusive)

C[C@@H]1CC=C[C@H]2[C@H]1C(=O)N(Cc1ccccc1)[C@H]2c1ccc2ccccc2c1
AC50 [4]: 5.69 µM (active)

CCN1C(=O)c2ccccc2[S+]([O-])c2ccc(C(=O)NCc3ccc(OC)cc3)cc21 (stereo not given)
EC50 [1]: > 195 µM (not active)

COc1ccc(C(=O)C2CCCN(Cc3cccn3-c3ccc(Cl)cn3)C2)c(OC)c1 (stereo not given)
EC50 [2]: 1.47 µM (active)
EC50 [3]: > 60 µM (not active)

O=C1NC(=O)[C@@](Cc2ccccc2)(c2cccnc2)N1
AC50 (Cytochrome P450 3A4): 3.98 µM (inconclusive)

CN(C)Cc1ccccc1-c1cc(N(C)Cc2ccco2)ncn1
AC50 (Cytochrome P450 3A4): 25.1 µM (inconclusive)

Fc1cccc(Cl)c1/C=N\N=C1c2ccccc2-c2ccccc21
AC50 (Cytochrome P450 2C9): 3.16 µM (inconclusive)

COc1ccc(OC)c(Nc2c3ccccc3nc3ccccc23)c1
AC50 [4]: 3.78 µM (active)

COc1ccc(CN2CC=C(c3ccc(F)cc3)CC2)cc1Br
EC50 [1]: > 195 µM (not active)

c1cncc(CNc2cc(-c3ccoc3)ncn2)c1
AC50 (Cytochrome P450 3A4): 3.98 µM (inconclusive)

CC(C)N(CCNC(=O)C1CCC(=O)N1Cc1ccc(F)cc1)Cc1ccccc1 (stereo not given)
AC50 (Cytochrome P450 2C9): 22.4 µM (inconclusive)

COC(=O)[C@@]1(Cc2ccc(F)cc2)[C@H]2c3cc(C(=O)N4CCCC4)n(CCc4c[nH]c5ccc(OC)cc45)c3C[C@H]2CN1C(=O)c1ccccc1
AC50 (Cytochrome P450 3A4): 0.251 µM (inconclusive)

Fc1ccccc1Nc1nc(-c2ccncc2)nc2ccccc12
EC50 [2]: 1.32 µM (active)
EC50 [3]: > 60 µM (not active)

CCC(=O)N(Cc1ccco1)c1nc(-c2ccccc2)cs1
AC50 (Cytochrome P450 3A4): 39.8 µM (inconclusive)

Cc1cc(OCC(=O)N2CCOCC2)ccc1NC(=O)c1ccccc1C
EC50 [1]: > 195 µM (not active)

COc1cc(CCC(=O)OCn2nnc3ccccc3c2=O)cc(OC)c1OC
EC50 [1]: > 195 µM (not active)

O=C(C1CCN(S(=O)(=O)N2CCOCC2)CC1)N1CCN(c2ccccc2)CC1
AC50 (Cytochrome P450 2C9): 22.4 µM (inconclusive)

CC(=O)OCC(=O)NCC(=O)c1c[nH]c2ccccc12
EC50 [1]: > 195 µM (not active)

Cc1n[nH]c(Nc2ccccc2)c1[N+](=O)[O-]
AC50 (Cytochrome P450 3A4): 25.1 µM (inconclusive)

CC1CN(S(=O)(=O)c2ccc(C(=O)Nc3nnc(-c4ccc5c(c4)CCCC5)o3)cc2)CC(C)O1 (stereo not given)
EC50 [2]: 1.86 µM (active)
EC50 [3]: 3.39 µM (active)

CCN(CC)S(=O)(=O)c1cc(C(=O)Nc2ccccc2C(=O)O)ccc1OC
AC50 (Cytochrome P450 3A4): 12.6 µM (inconclusive)

C=CCOc1ccc(/C=N\NC(N)=S)cc1
EC50 [2]: 1.17 µM (active)
EC50 [3]: > 60 µM (inconclusive)

CN1CCC[C@@H]1c1cccnc1.Cc1ccc(C(=O)O[C@@H](C(=O)O)[C@@H](OC(=O)c2ccc(C)cc2)C(=O)O)cc1
AC50 (Cytochrome P450 2C19): inconclusive

CN(C)c1ccc(/N=C/c2nc(-c3ccccc3)oc2OC(=O)c2cccc(Br)c2)cc1
EC50 [6]: 31 µM (active)

C/C(=N\Nc1ccc(C(=O)O)cc1)c1nc2ccccc2n1C
EC50 [6]: 18.9 µM (active)
